Consider three substances from patent US6017886A, “Use of NDF peptide as growth factor for sensory epithelium” (Amgen Inc., priority 1999, dated 2000).

What all share (type): cell-based
The test system of test [1] is utricular epithelium from seven day-old rats. As to the kind of experiment: BrdU incorporation (mitogenic activity) in primary culture of infant rat utricular sensory epithelium. The following applies: for number of BrdU-positive nuclei per piece of epithelium: 50 ng/ml, seventy-two hours culture, infant (seven day-old) rat epithelium, control 50±7. How it is done: (§1) Sensory edithelial cells obtained from utricles in the inner ear of both seven day-old (infant) rats and six week-old (adult) rats were isolated with the use of thermolysin treatment; see Corwin et al., Abstracts of the Association for Research in Otolaryngology, Volume 18, page 87 (1995). All edges were trimmed away and the central portion of the epithelium was cut into quarters. Epithelial cells from the infant rats were cultured in DMEM/F12 with 10% FBS (Gibco BRL, Grand Island, N.Y.), and 3 micrograms per milliliter (μg/ml) of mitosis tracer BrdU (Aldrich Chemicals, Milwaukee, Wis.) for seventy-two hours, with or without 50 nanograms per milliliter (ng/ml) of the peptide of SEQ ID NO: 1 or 50 ng/ml of recombinant derived FGF-10, recombinant derived FGF-16, recombinant derived ciliary-derived neurotrophic factor (CNTF), recombinant derived neurotrophic growth facor (NGF), recombinant derived glial-derived neurotrophic factor (GDNF), recombinant derived keratinocyte growth factor (KGF), or a control (no growth factor present). The experiment was ended by fixing in 4% paraformaldehyde for one hour.
After several washes, the explants were immunostained for calretinin (a vestibular organ hair cell marker) using rabbit antiserum (SWant Swiss Antibodies, Belinzona, Switzerland), diluted 1:10,000. The secondary antibody was goat anti-rabbit immunoglobulin conjugated to biotin, diluted 1:1,000. Extensive washes were followed by incubating the explants with egg white avidin conjugated to Cy3, diluted 1:1,000. The explants were fixed again with paraformaldehyde as described above, then processed for BrdU immunostaining (a measure of cell proliferation) using standard immunostaining protocols. The mouse monoclonal ant-BrdU antibody was obtained from Caltag Laboratories of San Franscisco, Calif. The secondary antibody, a goat anti-mouse conjugated to FITC, was obtained from Antibodies, Inc. of Davis, Calif.

The test system of test [2] is adult rat utricular epithelium. Kind of test: BrdU incorporation (mitogenic activity) in primary culture of adult rat utricular sensory epithelium. The following applies: adult (six week-old) rat, thirteen days culture, factor added for the last five days, BrdU last two days. As to the method: as §1
For the adult rats, the total time for cell culture was thirteen days, with the peptide of SEQ ID NO: 1 or other growth factor being added for the last five days and the BrdU ([…]) for the last two days. The experiment was ended as above by fixing the explants in paraformaldehyde. […]

Test [3] concerns young rat utricular sensory epithelial cells. As to the kind of experiment: Comparison with other NDF/heregulins, BrdU-positive nuclei in primary culture. The following applies: 50 ng/ml, FIG. 5. How it is done:
as §1
After several washes, the explants were immunostained for calretinin (a vestibular organ hair cell marker) using rabbit antiserum (SWant Swiss Antibodies, Belinzona, Switzerland), diluted 1:10,000. […]

The test system of test [4] is utricular cell line derived from a transgenic mouse. As to the kind of experiment: Cell proliferation by ELISA for BrdU in established utricular cell line. The following applies: 50 ng/ml added twenty-four hours prior to fixation, BrdU final sixteen hours. As to the method:
An established utricular cell line was derived from a transgenic mouse, using the procedure described by Gu et al. in Abstracts of the Association for Research in Otolaryngology, Volume 21, page 16 (1998). The cell line was cultured at 37° C. for three days in DMEM/F12 (Gibco BRL), containing N2 supplement (Sigma Chemical Company, St. Louis, Mo.) in a proportion of 1:100, under conditions restricting oncogene expression. For the treated group, fifty nanograms per milliliter of the peptide of SEQ ID NO: 1 were added twenty-four hours prior to fixation. Three micrograms per milliliter of BrdU (Aldrich Chemicals) were added for the final sixteen hours.
Cell proliferation was measured by ELISA for BrdU. Briefly, cells were fixed with 4% paraformaldehyde (Amersham, Life Sciences, Cleveland, Ohio) for one hour at room temperature. After treatment with 2N HCl for twenty minutes, the cells were washed and then sequentially incubated for one hour with a monocolonal antibody against BrdU (Caltag Laboratories) and horse anti-mouse antibody conjugated to biotin (Vector Laboratories, Burlingame, Calif.). After washing, the cells were further incubated with Europium streptavidin (Wallac Inc., Gaithersburg, Md.) diluted 1:1,000 and processed for time-resolved fluorescence in accordance with the manufacturer's recommendations. The signal was read on a Victor 1420 multi-label counter (Wallac Inc.).

Regarding “FGF-16: recombinant derived FGF-16 [reference compound]”, the “number of BrdU-positive nuclei per piece of epithelium” value in test [1] amounted to 100±16.
Still for that read-out and setting: the figure for “NGF: recombinant derived neurotrophic growth facor (NGF) [reference compound]” is 50±9.
As to “SHLVKCAEKEKTFCVNGGECFMVKDLSNPSRYLCKCQPGFTGARCQNYVMAS [SEQ ID NO: 1, hybrid form derived from the EGF-like domains of NDF-α and NDF-β]”, in test [1], the “number of BrdU-positive nuclei per piece of epithelium” value was found to be 397±33. Moreover, the “presence of BrdU-positive nuclei in supporting cells versus control (untreated) cells” value in test [1] (infant rat sensory epithelium primary culture, FIGS. 4A and 4B) is “very noticeable increase”. Further, the “increase in proliferation of adult rat sensory epithelial cells over the control group” value in test [2] was determined as 32.5 fold. The “increase in induction of cell proliferation over the control” value in test [3] came out at 29 fold. Further, the “ELISA reading (BrdU) relative to control (untreated) group” value in test [4] was found to be 1.7 times.
